Data on two compounds can be found in paper PMC7179297, “Preclinical Antimalarial Combination Study of M5717, a Plasmodium falciparum Elongation Factor 2 Inhibitor, and Pyronaridine, a Hemozoin Formation Inhibitor” (Antimicrobial Agents and Chemotherapy, 2020).

Like-named read-outs stand apart in the source and are kept apart here.

In series [1] the test system is P. falciparum eEF2 mutant parasites. Also on record: method as in PMID 26085270. The note with it: cited from earlier work.
Series [2] is described as follows: Pharmacokinetic analysis in blood of mice from the efficacy study. Format: in vivo. The note with it: for AUC(0-inf) / half-life: NOD-scid IL-2Rγnull, mouse, whole blood, po; for AUC(0-inf): mean ± SD; for half-life / pharmacokinetics in combination versus single-agent treatment / half-life (t1/2): mice; for half-life / half-life (t1/2): administered alone, single oral dose; for half-life: read-out: half-life (t1/2) (converted); for pharmacokinetics in combination versus single-agent treatment: Cmax, AUC0-inf and t1/2, entries 8 to 11. The protocol:
The test compounds’ concentrations in blood were assessed in order to determine pharmacokinetic parameters in mice from the efficacy study. Peripheral blood samples (20 μl) were sampled at different time points (1, 2, 4, 6, 24, 48, 72, 96, 168, and 216 h post treatment), mixed with 20 μl of H2O Milli Q and immediately frozen on dry ice. Samples were stored at –80°C until analysis. Blood from control mice was used for bioanalysis calibration and QC purposes. For liquid chromatography with tandem mass spectrometry (LC-MS/MS) analysis, the frozen samples were thawed and treated with two volumes equivalent of acetonitrile containing the internal standard. After centrifugation, one volume equivalent of supernatant was diluted with one volume equivalent of water containing heptafluorobutyric acid (HFBA). The extracts were analyzed by LC-MS/MS (quantification by HESI ionization in positive ion mode) performed at Swiss BioQuant AG (Switzerland). A noncompartmental analysis was performed to determine pharmacokinetic parameters using the Phoenix WinNonlin program (version 6.3).
56 Pharmacokinetic parameters
57 The pharmacokinetic analysis was performed non-compartmentally using the extravascular model. For the analysis,
58 concentrations below the LLOQ were set to 0. The following pharmacokinetic parameters of the analytes were
59 derived from the concentration-time profiles.
C0 The pre-dose concentration assumed to be 0 on the day of oral dosing.
tmax Time where the concentration in matrix is the highest.
Cmax/dose Cmax normalized to the dose of 1 mg/kg.
AUC0-t Area under the matrix concentration -time curve from 0 h to time t calculated using
the linear trapezoidal rule , using C0 as defined above.
AUC0-∞ Area under the matrix concentration -time curve from 0 h to infinity calculated using
AUC0-∞/dose AUC0-∞ normalized to a dose of 1 mg/kg.
61 Software for calculations: Phoenix WinNonlin program (version 6.3).
62 All concentration values and pharmacokinetic parameters were rounded to 3 significant digits.
63 The numbers listed for %bias and %CV were rounded to 1 decimal place.

For series [3] the following is noted: 400 mg in healthy volunteers ref 16; cited from earlier work.

Turning to `O=C(NCCN1CCCC1)c1cc(-c2ccc(CN3CCOCC3)cc2)nc2ccc(F)cc12` [M5717], the IC50 fold shift is 660 fold in series [1] (eEF2 mutation L755F ref 7), 135 fold in series [1] (eEF2 mutation P754A ref 7) and 200 fold in series [1] (eEF2 mutation P754S ref 7). The “fold shift of IC50” value in series [1] (eEF2 mutation Y186N, high-grade resistance ref 7) was > 3,000 fold. Also, the AUC(0-inf) stood at 1570 ng·h/mL in series [2] (3 mg/kg, M5717 3 mg/kg single oral dose (entry 1), read-out: M5717 exposure AUC0-inf); 3390 ng·h/mL in series [2] (6 mg/kg, M5717 6 mg/kg single oral dose (entry 2), read-out: M5717 exposure AUC0-inf); 6650 ng·h/mL in series [2] (12 mg/kg, M5717 12 mg/kg + pyronaridine 12 mg/kg single oral dose (entry 10), read-out: M5717 exposure AUC0-inf); 6160 ng·h/mL in series [2] (12 mg/kg, M5717 12 mg/kg single oral dose (entry 3), read-out: M5717 exposure AUC0-inf); 16900 ng·h/mL in series [2] (30 mg/kg, M5717 30 mg/kg single oral dose (entry 4), read-out: M5717 exposure AUC0-inf); 1360 ng·h/mL in series [2] (M5717 3 mg/kg + pyronaridine 6 mg/kg single oral dose (entry 8), read-out: M5717 exposure AUC0-inf). Besides, the AUC(0-inf) was found to be 2980 ng·h/mL in series [2] (M5717 6 mg/kg + pyronaridine 36 mg/kg single oral dose (entry 11), read-out: M5717 exposure AUC0-inf) and 6400 ng·h/mL in series [2] (M5717 12 mg/kg + pyronaridine 6 mg/kg single oral dose (entry 9), read-out: M5717 exposure AUC0-inf). Further, the half-life in series [2] was roughly 37 h. For the same compound, the “pharmacokinetics in combination versus single-agent treatment” value in series [2] is listed as “unchanged”. Besides, in series [2], the “half-life (t1/2)” value was 37 h.
As to `COc1ccc2nc3cc(Cl)ccc3c(Nc3cc(CN4CCCC4)c(O)c(CN4CCCC4)c3)c2n1` [pyronaridine], the t1/2 in series [3] is recorded as 241 h. Moreover, the AUC(0-inf) in series [2] (6 mg/kg, pyronaridine 6 mg/kg single oral dose (entry 5), read-out: Pyronaridine exposure AUC0-inf) is 6560 ng·h/mL; in series [2] (12 mg/kg, M5717 12 mg/kg + pyronaridine 12 mg/kg single oral dose (entry 10), read-out: Pyronaridine exposure AUC0-inf), 12100 ng·h/mL; in series [2] (12 mg/kg, pyronaridine 12 mg/kg single oral dose (entry 6), read-out: Pyronaridine exposure AUC0-inf), 14500 ng·h/mL; in series [2] (36 mg/kg, pyronaridine 36 mg/kg single oral dose (entry 7), read-out: Pyronaridine exposure AUC0-inf), 55600 ng·h/mL; in series [2] (M5717 3 mg/kg + pyronaridine 6 mg/kg single oral dose (entry 8), read-out: Pyronaridine exposure AUC0-inf) it was 8500 ng·h/mL; in series [2] (M5717 6 mg/kg + pyronaridine 36 mg/kg single oral dose (entry 11), read-out: Pyronaridine exposure AUC0-inf) it was 58200 ng·h/mL. For the same compound, the AUC(0-inf) in series [2] (M5717 12 mg/kg + pyronaridine 6 mg/kg single oral dose (entry 9), read-out: Pyronaridine exposure AUC0-inf) is 8490 ng·h/mL. In addition, the half-life in series [2] was roughly 74 h. In addition, the “pharmacokinetics in combination versus single-agent treatment” value in series [2] is recorded as “No change”. In addition, the “half-life (t1/2)” value in series [2] is recorded as 74 h.
